Reference: ChEMBL document CHEMBL1201862, “PubChem BioAssay data set” (2004)
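Growth conditions: 96-well plates. Treatment: test compound, 48 hours, 5 concentrations. Analysis: linear interpolation between bracketing concentrations; unreached endpoints set to highest concentration. The concentration for 50% growth inhibition is given as GI50.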 Calls of active or inactive are those of the source. Cut-off read from the data, not from the text of the source: active = GI50 up to about 1.1 µM and inactive = higher.

Columns and labels:
Experiment in all cases: inhibition of tumour cell growth, NCI panel, 48 h
[1] = tested on: 786-0
[2] = tested on: A498
[3] = tested on: A549
[4] = tested on: ACHN
[5] = tested on: BT-549
[6] = tested on: CAKI-1
[7] = tested on: CCRF-CEM
[8] = tested on: COLO 205
[9] = tested on: DU-145
[10] = tested on: EKVX
[11] = tested on: HCC 2998
[12] = tested on: HCT-116
[13] = tested on: HCT-15
[14] = tested on: HL-60
[15] = tested on: HOP-62
[16] = tested on: HOP-92
[17] = tested on: HT-29
[18] = tested on: Hs-578T
[19] = tested on: IGROV-1
[20] = tested on: K562
[21] = tested on: KM12
[22] = tested on: LOX IMVI
[23] = tested on: M14
[24] = tested on: MCF7
[25] = tested on: MDA-MB-231
[26] = tested on: MDA-MB-435
[27] = tested on: MDA-N
[28] = tested on: MOLT-4
[29] = tested on: Malme-3M
[30] = tested on: NCI-H226
[31] = tested on: NCI-H23
[32] = tested on: NCI-H460
[33] = tested on: NCI-H522
[34] = tested on: NCI/ADR-RES
[35] = tested on: OVCAR-3
[36] = tested on: OVCAR-4
[37] = tested on: OVCAR-5
[38] = tested on: OVCAR-8
[39] = tested on: PC-3
[40] = tested on: RPMI-8226
[41] = tested on: RXF 393
[42] = tested on: SF-268
[43] = tested on: SF-295
[44] = tested on: SF-539
[45] = tested on: SK-MEL-28
[46] = tested on: SK-MEL-2
[47] = tested on: SK-MEL-5
[48] = tested on: SN12C
[49] = tested on: SNB-19
[50] = tested on: SNB-75
[51] = tested on: SR
[52] = tested on: SW-620
[53] = tested on: T47D
[54] = tested on: U-251
[55] = tested on: UACC-257
[56] = tested on: UACC-62
[57] = tested on: UO-31

Measured: GI50

CCOc1ccc2c(C)cc(=O)oc2c1
> 100 µM: [13]
inactive: [1] > 100 µM | [2] > 100 µM | [3] > 100 µM | [4] > 100 µM | [5] > 100 µM | [6] > 100 µM | [7] > 100 µM | [8] > 100 µM | [9] > 100 µM | [10] > 100 µM | [11] > 100 µM | [12] > 100 µM | [14] > 100 µM | [15] > 100 µM | [16] > 100 µM | [17] > 100 µM | [18] > 100 µM | [19] > 100 µM | [20] > 100 µM | [21] > 100 µM | [22] > 100 µM | [23] > 100 µM | [24] > 100 µM | [25] > 100 µM | [26] > 100 µM | [27] > 100 µM | [28] > 100 µM | [29] > 100 µM | [30] > 100 µM | [31] > 100 µM | [32] > 100 µM | [33] > 100 µM | [34] > 100 µM | [35] > 100 µM | [36] > 100 µM | [37] > 100 µM | [38] > 100 µM | [39] > 100 µM | [40] > 100 µM | [41] > 100 µM | [42] > 100 µM | [43] > 100 µM | [44] > 100 µM | [45] > 100 µM | [46] > 100 µM | [47] > 100 µM | [48] > 100 µM | [49] > 100 µM | [50] > 100 µM | [51] > 100 µM | [52] > 100 µM | [53] > 100 µM | [54] > 100 µM | [55] > 100 µM | [56] > 100 µM | [57] > 100 µM
